In patent US20190360054A1, “METHOD FOR DIAGNOSIS OF METASTATIC CANCER OR TAXANE-BASED DRUG-RESISTANT CANCER BY USING LMCD1 PROTEIN AND GENE CODING THEREFOR” (AICT (ADVANCED INSTITUTES OF CONVERGENCE TECHNOLOGY), priority 2016, published 2019):

Assays:
[1] = test system: LMCD1 mRNA in MDA-MB231 cells; assay: RT-PCR of LMCD1 mRNA after TGF-β treatment; type: cell-based, human; settings: 5 ng/ml TGF-β, 24 hours, Smad3 EPSM adenovirus-infected cells
Experimental: For the measurement of LMCD1 mRNA, MDA-MB231 cells were infected with GFP and Smad3. EPSM adenovirus for 2 days, and then 2 hours before TGF-β treatment, the cells were pre-treated with 10 μM of SB431542 and treated with 5 ng/ml of TGF-β, followed by incubation for 24 hours. Total RNA was extracted from the cells using a TRIzol reagent (Invitrogen) in accordance with the manufacturer's protocol. The extracted RNA was converted into cDNA using M-MLV reverse transcriptase (Promega). The cDNA was synthesized and subjected to RT-PCR using a specific primer pair by using an AccuPower™ PCR PreMix kit (Bioneer Co.). Gene mRNAs were normalized to GAPDH.

[2] = test system: LMCD1 promoter in MCF10CA1a.cl1 cells; assay: LMCD1 promoter luciferase assay with TGF-β stimulation; type: cell-based, human; settings: 3 ng/ml TGF-β, 24 hours, Smad3 EPSM adenovirus-infected cells
Experimental: In particular, for the LMCD1 promoter analysis, MCF10CA1a.cl1 cells were infected with GFP and Smad3. EPSM adenovirus for 2 days, and then transiently transfected with an Lmcd1 promoter using FuGENE HD (Promega). 24 hours before harvesting, the cells were stimulated with 3 ng/ml of TGF-β. Luciferase activity was analyzed using a Luciferase Assay System kit (Promega) in accordance with the manufacturer's protocol. All assays were performed in triplicate, and all values were normalized to transfection efficiency as determined by β-galactosidase activity.

[3] = Production of paclitaxel-resistant cells by repeated paclitaxel treatment; type: cell-based; settings: paclitaxel raised in increments of 0.5 nM over passages; read-out: IC50 value of paclitaxel at which the resistant cells did not die
Experimental: In particular, parental cells were treated with paclitaxel at a small concentration of 0.5 nM, and alive cells were repeated treated with paclitaxel three or four times while being passaged.

[4] = test system: MCF10CAT1k.cl2 (M-II) and MCF10CA1a.cl1 cells; assay: MTT assay of paclitaxel resistance after treatment with LMCD1-containing conditioned media; type: cell-based, human; settings: cells treated with conditioned media of LMCD1-overexpressing MCF10CA1a.cl1 cells
Experimental: For MTT assay to examine resistance to paclitaxel, the cells were seeded in 96 wells at a density of 3,000 cells per well and incubated for 24 hours. The culture solution was removed, and a culture solution containing the concentrated conditioned media acquired from LPCX and LMCD1-overexpressing MCF10CA1a.cl1 cells was added to each well to a final volume of 100 μl/well. After incubation for 72 hours, the culture solution was removed from the culture, and 0.5 mg/ml of 3-(4,5-dimethylthiazol-2-yl)-2,5-diphenyltetrazolium bromide (MTT) was added to each well, followed by incubation for 2 hours. PBS containing an MTT solution was carefully removed, and 200 μl of dimethyl sulfoxide was added to each well, followed by incubation at room temperature for 5 minutes. Absorbance at 580 nm was measured using a 96-well microplate detector (Molecular Devices).

[5] = test system: MCF10CA1a.cl1 cells, MDA-MB231 cells; assay: MTT assay of paclitaxel resistance after Smad3 EPSM adenovirus infection; type: cell-based, human
Excerpt: GFP, Smad3 wild-type, C-terminal phosphorylation-inhibiting mutant (3SA), Smad3 linker phosphorylation-activating mutant (STD), and a Smad3 linker phosphorylation-inhibiting mutant (EPSM) adenovirus were supplied from Dr. Sushil G. Rane (NIDDK, NIH, Bethesda, Md.). To measure transduction efficiency, GFP adenovirus was used as a control. The cells were transfected with 75 to 100 virus particles/cell in a cell solution, and each transfection procedure was repeated three times.
In particular, MCF10CA1a.cl1 cells, MDA-MB231 cells, and the cells produced according to Example 3-1 were seeded in 96-wells at a density of 3,000 cells/well and incubated for 24 hours. The culture solution was removed and a culture solution containing paclitaxel or docetaxel was added to each well to a final volume of 100 μl/well. After incubation for 72 hours, the culture solution was removed from the culture, and 0.5 mg/ml of 3-(4,5-dimethylthiazol-2-yl)-2,5-diphenyltetrazolium bromide (MTT) was added to each well, followed by incubation for 2 hours. Media containing an MTT solution was carefully removed, and 200 μl of dimethyl sulfoxide was added to each well, followed by incubation at room temperature for 5 minutes. Absorbance at 580 nm was measured using a 96-well microplate detector (Molecular Devices).

[6] = test system: LMCD1-overexpressing MCF10CA1a.cl1 cells; assay: MTT assay of susceptibility to paclitaxel in LMCD1-overexpressing cells; type: cell-based, human; settings: MCF10CA1a.cl1 cells when LMCD1 was overexpressed, 72 hours
Experimental: To investigate whether LMCD1 protein-overexpressing breast cancer cells have resistance to a taxane-based anticancer agent, an MTT assay, which is used to evaluate cell viability, was performed on MCF-10CA1a.cl1, which are human MCF-10A-based breast cancer cell lines, and MDA-MB231. The MCF-10CA1a.cl1 and MDA-MB231 cell lines are characterized as malignant breast cancer cell lines with high metastasis.
In particular, human MCF-10A-based breast cancer cell lines, i.e., MCF-10CA1a.cl1 and MDA-MB231, were maintained in a DMEM culture solution containing 10% fetal bovine serum and 1% penicillin/streptomycin (WeIGENE) in a CO2 incubator at 37° C.
To overexpress the LMCD1 protein in cells, LMCD1 was cloned into retroviral vector pLPCX, and LMCD1 retrovirus was obtained using Plat-GP cells. The metastatic breast cancer cells were infected with the LMCD1 retrovirus, LMCD1 protein-overexpressing cells were selected using puromycin, and then the selected cells were incubated in a DMEM culture solution containing 10% fetal bovine serum and 1% penicillin/streptomycin (WeIGENE) in a CO2 incubator at 37° C.
The cells were seeded in 96 wells at a density of 3,000 cells per well and incubated for 24 hours. […] Absorbance at 580 nm was measured using a 96-well microplate detector (Molecular Devices).

Compound	LMCD1 mRNA expression level [1]	LMCD1 transcriptional activity (luciferase) [2]	IC50 [3] [nM]	resistance to paclitaxel (MTT) [4]	susceptibility to paclitaxel (MTT) ([5]; LMCD1 depleted in Smad3 EPSM adenovirus-infected cells (EPSM-SV-shLmcd1 #1))	paclitaxel resistance (cell viability, MTT) ([5]; Smad3 linker phosphorylation blocked (EPSM adenovirus), compared to control)	resistance to paclitaxel (cell viability, MTT) [6]
TGF-β	increased	increased					
CC(=O)O[C@H]1C(=O)[C@@]2(C)[C@H]([C@H](OC(=O)c3ccccc3)[C@]3(O)C[C@H](OC(=O)[C@H](O)[C@@H](NC(=O)c4ccccc4)c4ccccc4)C(C)=C1C3(C)C)[C@]1(OC(C)=O)CO[C@@H]1C[C@@H]2O [paclitaxel]			50	significantly increased	restored	induced	increased
